Our source for the EC50 and Ki values is US9951064B2, “Azaindazole compounds as inhibitors of T790M containing EGFR mutants” (Genentech, Inc., priority 2013, dated 2018).

Experiment [1] concerns the target T1, phosphor-EGFR in H1975(L585R/T790M) mutant EGFR expressing cells (Homo sapiens, UniProt P00533, L858R/T790M).
T1 construct: host or cells: NCI-H1975
Nature of the experiment: H1975 pEGFR MSD cellular assay. Format: cell-based. Conditions: NCI-H1975 cells, serum starved, 1 hour compound incubation, pEGFR Tyr1068 MSD; read-out: HI975 pEGFR EC50. The procedure: H1975 pEGFR MSD Cellular Assays
These assays are intended for determining cellular. […] (Meso Scale Discovery Catalog# N31CB-1).
NCI-H1975 (ATCC Catalog# CRL-5908) cells are maintained in medium containing RPMI 1640, 10% FBS, 4 mM L-Glutamine, 1% Penicillin-Streptomycin, and 4.5 g/L Glucose. All cell culture reagents were purchased from Invitrogen/Gibco. Cells are cultured at 37° C. at 5% CO2 and split as recommended by ATCC.
Cell Plating and Serum Starvation:
H1975 cells are harvested and plated into sterile cell culture treated 384 well plates (Greiner catalog #781091) at a density of 30,000 cells/well in 50 ul culture medium and placed in a 37° C. at 5% CO2 incubator for six hours. After six hours, culture medium is aspirated and replaced with serum-free culture medium. Cells are then incubated with the serum-free medium overnight at 37° C. and 5% CO2.
The following day, test compounds are serially diluted in dimethyl sulfoxide (DMSO) and added to cells in serum free medium (final DMSO concentration 0.5%). Assay plates are then incubated for 1 hour at 37° C. and 5% CO2. Following 1 hour of compound incubation cells are then lysed and processed as per the MSD pEGFR assay kit protocol. Cell lysates are added to assay plates pre-coated with antibodies against phosphorylated EGFR. Phosphorylated EGFR in samples are allowed to bind to the capture antibodies overnight at 4° C. The detection antibody (anti-total EGFR, labeled with an electrochemiluminescent SULFO-TAG) is added to the bound lysate and incubated for 1 hour at room temperature. The MSD Read Buffer is added such that when a voltage is applied to the plate electrodes, the labels bound to the electrode surface emit light. The MSD Sector Instrument measures the intensity of the light, and quantitatively measures the amount of phosphorylated-EGFR in the sample. Percent inhibition of EGFR phosphorylation by varying concentrations of test compounds is calculated relative to untreated controls. EC50 values are calculated using the 4 parameter logistic nonlinear regression dose-response model.

The target in experiment [2] is T2, EGFR T790M L858R (Homo sapiens, UniProt P00533, L858R/T790M).
T2 construct: purchased Life Technologies PV4879
T2 sequence (P00533 25-1210 T790M/L858R): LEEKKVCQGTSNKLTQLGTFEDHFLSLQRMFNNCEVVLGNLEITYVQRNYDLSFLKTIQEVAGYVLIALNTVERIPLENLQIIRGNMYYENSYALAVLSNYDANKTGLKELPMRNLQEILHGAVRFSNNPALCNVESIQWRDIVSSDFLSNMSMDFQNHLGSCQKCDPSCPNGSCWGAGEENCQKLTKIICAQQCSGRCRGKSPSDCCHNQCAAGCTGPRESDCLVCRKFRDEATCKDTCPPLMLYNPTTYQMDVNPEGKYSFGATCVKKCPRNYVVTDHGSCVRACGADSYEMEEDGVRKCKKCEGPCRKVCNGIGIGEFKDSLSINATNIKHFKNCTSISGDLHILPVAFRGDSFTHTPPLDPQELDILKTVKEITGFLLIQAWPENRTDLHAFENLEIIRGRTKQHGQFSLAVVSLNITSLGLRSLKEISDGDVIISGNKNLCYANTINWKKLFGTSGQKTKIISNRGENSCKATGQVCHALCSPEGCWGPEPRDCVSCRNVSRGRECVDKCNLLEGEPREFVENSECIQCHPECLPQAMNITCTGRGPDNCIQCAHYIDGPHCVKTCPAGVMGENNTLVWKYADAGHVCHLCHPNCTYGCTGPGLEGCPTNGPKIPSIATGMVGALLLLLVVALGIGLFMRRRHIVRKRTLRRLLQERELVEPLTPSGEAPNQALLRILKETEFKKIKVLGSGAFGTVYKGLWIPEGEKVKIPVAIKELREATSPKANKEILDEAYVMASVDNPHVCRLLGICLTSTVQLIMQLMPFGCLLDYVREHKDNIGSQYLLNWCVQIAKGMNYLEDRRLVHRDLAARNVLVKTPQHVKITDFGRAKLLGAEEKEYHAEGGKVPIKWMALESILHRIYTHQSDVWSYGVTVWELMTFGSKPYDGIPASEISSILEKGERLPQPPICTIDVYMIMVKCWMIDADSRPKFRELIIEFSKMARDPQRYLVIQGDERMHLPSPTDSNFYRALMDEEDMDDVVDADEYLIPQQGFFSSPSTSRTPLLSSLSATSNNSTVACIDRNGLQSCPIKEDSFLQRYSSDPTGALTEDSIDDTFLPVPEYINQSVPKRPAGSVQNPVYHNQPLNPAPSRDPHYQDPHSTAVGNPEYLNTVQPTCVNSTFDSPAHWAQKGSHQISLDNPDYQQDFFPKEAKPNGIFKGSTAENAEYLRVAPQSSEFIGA
Description: EGFR T790M L858R biochemical assay (Caliper mobility shift). To be noted: 5 μM ATP; apparent Ki (Morrison fit) converted by Cheng-Prusoff, Km of ATP 1.3 μM. The procedure:
The exemplified compounds described herein were tested according to the assay below. The enzyme data reported in Tables 4-5 is generally a representative of multiple experiments.
Reactions proceed for 30 minutes at room temperature (22° C.) and are terminated with 80 mM 2,2′,2″,2′″-(ethane-1,2-diyldinitrilo)tetraacetic acid (EDTA). Product is detected using the Caliper mobility shift detection method where product and substrate are electrophoretically separated and measured.

Experiment [3] relates to H1975 (EGFR T790M/L858R) cell proliferation. Description: H1975 proliferation assay (Cell Titer-Glo). Format: cell-based. To be noted: Homo sapiens, NCI-H1975, 72 h, NCI-H1975 cells, 72 hour incubation, read-out: H1975 antiproliferative EC50. The procedure: H1975 Proliferation Assays
All cell culture reagents were purchased from Invitrogen/Gibco. Cells are cultured at 37° C. at 5% CO2 and split as recommended by ATCC.
For orientation: In ATP-based viability assays light output follows the ATP content of the culture.

T1 sequence (P00533 25-1210 T790M/L858R): as above

What is called EC50 is the concentration giving half of the maximal effect. Turning to `CCC(C)n1nc(N2CCNC2=O)c2cnc(Nc3ccnc(N4CC[C@@H](OC)[C@@H](F)C4)n3)cc21` (mixture of isomers) [Example 26, (±)-1-(1-(sec-Butyl)-6-((2-(cis-3-fluoro-4-methoxypiperidin-1-yl)pyrimidin-4-yl)amino)-1H-pyrazolo[4,3-c]pyridin-3-yl)imidazolidin-2-one], the EC50 amounted to 0.0144 µM in experiment [1] and 0.108 µM in experiment [3]. For the same molecule, the Ki in experiment [2] was 0.0006 µM.
`CC(C)n1nc(N2CCS(=O)(=O)CC2)c2cnc(Nc3ccnc(-c4cnn(S(=O)(=O)C5CC5)c4)n3)cc21` [Example 1, 4-(6-((2-(1-(Cyclopropylsulfonyl)-1H-pyrazol-4-yl)pyrimidin-4-yl)amino)-1-isopropyl-1H-pyrazolo[4,3-c]pyridin-3-yl)thiomorpholine 1,1-dioxide]: the EC50 in experiment [1] is 0.606 µM; in experiment [3], 2.02 µM. Also, the Ki in experiment [2] worked out at 0.609 µM.
Taken in the same sequence, the figures for `CC(C)n1nc(N2CC3(COC3)C2)c2cnc(Nc3ccnc(-c4cnn(CC5CC5)c4)n3)cc21` [Example 4, N-(2-(1-(Cyclopropylmethyl)-1H-pyrazol-4-yl)pyrimidin-4-yl)-1-isopropyl-3-(2-oxa-6-azaspiro[3.3]heptan-6-yl)-1H-pyrazolo[4,3-c]pyridin-6-amine] were 0.219 µM, 0.732 µM and 0.003 µM.
Turning to `CC(C)n1nc(N2CC3(COC3)C2)c2cnc(Nc3ccnc(-c4cnn(S(=O)(=O)C5CC5)c4)n3)cc21` [Example 5, N-(2-(1-(Cyclopropylsulfonyl)-1H-pyrazol-4-yl)pyrimidin-4-yl)-1-isopropyl-3-(2-oxa-6-azaspiro[3.3]heptan-6-yl)-1H-pyrazolo[4,3-c]pyridin-6-amine], the results for the EC50 in experiment [1] and in experiment [3] were 0.0296 µM and 0.421 µM, respectively. Further, the Ki in experiment [2] was determined as 0.001 µM.
Taken in the same sequence, the figures for `CC(C)n1nc(N2CCOCC2)c2cnc(Nc3ccnc(-c4cnn(CC5CC5)c4)n3)cc21` [Example 9, N-(2-(1-(Cyclopropylmethyl)-1H-pyrazol-4-yl)pyrimidin-4-yl)-1-isopropyl-3-morpholino-1H-pyrazolo[4,3-c]pyridin-6-amine] were 0.382 µM, 1.84 µM and 0.0052 µM.
Taken in the same sequence, the figures for `CCS(=O)(=O)n1cc(-c2nccc(Nc3cc4c(cn3)c(NC3COC3)nn4C(C)C)n2)cn1` [Example 16, N^6-(2-(1-(Ethylsulfonyl)-1H-pyrazol-4-yl)pyrimidin-4-yl)-1-isopropyl-N^3-(oxetan-3-yl)-1H-pyrazolo[4,3-c]pyridine-3,6-diamine] were 0.0797 µM, 0.921 µM and 0.0011 µM.
On the same counts, the results for `CC(C)n1nc(C2CCOC2)c2cnc(Nc3ccnc(-c4cnn(S(=O)(=O)C5CC5)c4)n3)cc21` (stereo not drawn) [Example 19, N-(2-(1-(Cyclopropylsulfonyl)-1H-pyrazol-4-yl)pyrimidin-4-yl)-1-isopropyl-3-(tetrahydrofuran-3-yl)-1H-pyrazolo[4,3-c] pyridin-6-amine] are 0.723 µM, 1.47 µM and 0.0049 µM.
Consider `CC(C)n1nc(N2CC[C@@H](C#N)C2)c2cnc(Nc3ccnc(-c4cnn(S(=O)(=O)C5CC5)c4)n3)cc21` [Example 28, (R)-1-(6-((2-(1-(Cyclopropylsulfonyl)-1H-pyrazol-4-yl)pyrimidin-4-yl)amino)-1-isopropyl-1H-pyrazolo[4,3-c]pyridin-3-yl)pyrrolidine-3-carbonitrile], for which the EC50 in experiment [1] was 0.0157 µM; in experiment [3], 0.121 µM. Further, in experiment [2], the Ki was 0.0008 µM.
Consider `CC(C)n1nc(OC2CCOC2)c2cnc(Nc3ccnc(-c4cnn(S(=O)(=O)C5CC5)c4)n3)cc21` (stereo not drawn) [Example 29, N-(2-(1-(Cyclopropylsulfonyl)-1H-pyrazol-4-yl)pyrimidin-4-yl)-1-isopropyl-3-(tetrahydrofuran-3-yloxy)-1H-pyrazolo[4,3-c]pyridin-6-amine], for which the EC50 in experiment [1] was 0.154 µM; in experiment [3], 0.798 µM. The Ki in experiment [2] is 0.0019 µM.
With `COCCNC(=O)C1CN(c2nn(C(C)C)c3cc(Nc4ccnc(-c5cnn(S(=O)(=O)C6CC6)c5)n4)ncc23)C1` [Example 30, 1-(6-(2-(1-(Cyclopropylsulfonyl)-1H-pyrazol-4-yl)pyrimidin-4-ylamino)-1-isopropyl-1H-pyrazolo[4,3-c]pyridin-3-yl)-N-(2-methoxyethyl)azetidine-3-carboxamide], the values for the EC50 in experiment [1] and in experiment [3] were 0.0513 µM and 1.45 µM, respectively. Besides, the Ki in experiment [2] was found to be 0.0007 µM.
`CC(C)n1nc(N2CCCC2)c2cnc(Nc3ccnc(-c4cnn(CC5CC5)c4)n3)cc21` [Example 31, N-(2-(1-(cyclopropylmethyl)-1H-pyrazol-4-yl)pyrimidin-4-yl)-1-isopropyl-3-(pyrrolidin-1-yl)-1H-pyrazolo[4,3-c]pyridin-6-amine]: the figures for the EC50 in experiment [1] and in experiment [3] were 0.116 µM and 1.06 µM, respectively. In addition, the Ki in experiment [2] worked out at 0.0014 µM.
Take `CC(C)n1ncc2cnc(Nc3ccnc(-c4cnn(CC5CC5)c4)n3)cc21` [Example 32, N-(2-(1-(cyclopropylmethyl)-1H-pyrazol-4-yl)pyrimidin-4-yl)-1-isopropyl-1H-pyrazolo[4,3-c]pyridin-6-amine]: the figures for the EC50 in experiment [1] and in experiment [3] were 3.83 µM and 0.498 µM, respectively. Also, in experiment [2], the Ki was 0.0356 µM.
Taken in the same sequence, the figures for `CC(C)n1ncc2cnc(Nc3ccnc(N4CCC(O)C(C)(C)C4)n3)cc21` (stereo not drawn) [Example 33, 1-(4-((1-isopropyl-1H-pyrazolo[4,3-c]pyridin-6-yl)amino)pyrimidin-2-yl)-3,3-dimethylpiperidin-4-ol] were 1.02 µM, 0.11 µM and 0.0075 µM.
Taken in the same sequence, the figures for `CC(C)n1nc(N2CCOCC2)c2cnc(Nc3ccnc(N4CCC(O)C(C)(C)C4)n3)cc21` (stereo not drawn) [Example 34] were 0.111 µM, 1.41 µM and 0.0026 µM.
Taken in the same sequence, the figures for `CCS(=O)(=O)n1cc(-c2nccc(Nc3cc4c(cn3)c(N3CC(CO)C3)nn4C(C)C)n2)cn1` [Example 36, (1-(6-(2-(1-(ethylsulfonyl)-1H-pyrazol-4-yl)pyrimidin-4-ylamino)-1-isopropyl-1H-pyrazolo[4,3-c]pyridin-3-yl)azetidin-3-yl)methanol] were 0.0158 µM, 0.397 µM and 0.0007 µM.
With `CC(C)n1nc(N[C@H]2CCOC2)c2cnc(Nc3ccnc(-c4cnn(S(=O)(=O)C5CC5)c4)n3)cc21` [Example 39, (S)-N6-(2-(1-(cyclopropylsulfonyl)-1H-pyrazol-4-yl)pyrimidin-4-yl)-1-isopropyl-N3-(tetrahydrofuran-3-yl)-1H-pyrazolo[4,3-c]pyridine-3,6-diamine], the EC50 in experiment [1] was determined as 0.0711 µM; in experiment [3], 0.373 µM. Further, the Ki in experiment [2] was 0.0011 µM.
On the same counts, the results for `CC(C)n1nc(N[C@@H]2CCOC2)c2cnc(Nc3ccnc(-c4cnn(S(=O)(=O)C5CC5)c4)n3)cc21` [Example 40, (R)-N6-(2-(1-(cyclopropylsulfonyl)-1H-pyrazol-4-yl)pyrimidin-4-yl)-1-isopropyl-N3-(tetrahydrofuran-3-yl)-1H-pyrazolo[4,3-c]pyridine-3,6-diamine] are 0.0848 µM, 0.775 µM and 0.0011 µM.
On the same counts, the results for `CC(C)n1nc(N2CC[C@@H](CO)C2)c2cnc(Nc3ccnc(-c4cnn(S(=O)(=O)C5CC5)c4)n3)cc21` [Example 41, (R)-(1-(6-(2-(1-(cyclopropylsulfonyl)-1H-pyrazol-4-yl)pyrimidin-4-ylamino)-1-isopropyl-1H-pyrazolo[4,3-c]pyridin-3-yl)pyrrolidin-3-yl)methanol] are 0.0094 µM, 0.162 µM and 0.0013 µM.
